Read-outs that look alike come from different tables or passages of the source. Marks after values point to notes of the source that are not given here. Where only a bound is given, the exact number is not on record here.

Here are results for two compounds from US20170368148A1, “USES OF A PTHrP ANALOGUE IN REDUCING FRACTURE RISK” (RADIUS HEALTH, INC., priority 2015, published 2017).

Data set [1] deals with postmenopausal women with osteoporosis. The data set can be described thus: ACTIVExtend study: fractures at month 25 (abaloparatide or placebo 18 months, then alendronate 6 months). The format is in vivo, human. The following applies: abaloparatide 80 μg/day or placebo 18 months.
For data set [2] the test system is unchanged.
For data set [3] the test system is unchanged. The following applies: in vivo.
Protocol: All subjects received supplemental calcium (500-1000 mg) and vitamin D (400-800 IU) per local practice. […] Blood calcium levels were assessed 4-hours and 24-hours after drug administration. Subjects were monitored for adverse events (AEs) and local tolerance at the injection site at each visit. Clinical and laboratory safety parameters, electrocardiograms, were also measured at each study visit.
Efficacy and safety were assessed using all randomized patients who received at least one dose of study drug. Baseline characteristics and safety parameters were summarized using descriptive statistics. […] All hypotheses were tested at the 2-sided 5% significance level.
Data set [4] has the same test system. The following applies: in vivo. The source holds these as a separate data set.
Protocol: (§1) Safety evaluations performed in the ACTIVE trial included physical examinations, vital signs, 12-lead electrocardiograms, or ECGs, clinical laboratory tests and monitoring, and recording of adverse events. Specific safety assessments included pre-dose and post-dose (four hours) determination of serum calcium, determination of creatinine clearance, post-dose ECG assessments at selected visits, and assessments of postural hypotension (60 minutes post-dose) at selected clinic visits.
(§2) The ACTIVE trial also evaluated several potential safety measures, including blood calcium levels, orthostatic hypotension, nausea, dizziness, and injection-site reactions.
Data set [5] shares this test system. The data set can be described thus: ACTIVE trial: adverse events. As to conditions: 18 months; abaloparatide 80 μg (n = 822), teriparatide 20 μg (n = 818).
Protocol: as §1, §2
Setting [6] is: during alendronate treatment, ACTIVExtend.

As for alendronate [PBO/ALN], in data set [1], the “Fracture Rate, incident clinical fractures” value is listed as 7.1%; the “Fracture Rate, incident non-vertebral fractures” value is 5.5%; the “Fracture Rate, major osteoporotic fractures” value was found to be 4.6%; the “Fracture Rate, new incident vertebral fractures” value worked out at 4.4%. Moreover, in data set [2] (setting [6]), the “AE: Abdominal pain, upper” value is 2.6%; the “AE: Arthralgia” value came to 4.7%; the “AE: Back pain” value is 2.1%; the “AE: Bone Pain” value was determined as 1.2%. In data set [2] (setting [6]), the “AE: Diarrhea” value is on record as 1.4%, the “AE: Dyspepsia” value stood at 2.2%, the “AE: Hypercalciuria” value is 1.6% and the “AE: Hypertension” value amounted to 2.1%. In addition, in data set [2] (setting [6]), the “AE: Nasopharyngitis” value was 1.4%, the “AE: Pain in extremity” value came to 2.4%, the “AE: Upper respiratory tract infection” value amounted to 4.5% and the “AE: Urinary tract infection” value was 1.0%. Further, the “AE: Influenza” value in data set [2] (human, in vivo) was determined as 1.0%.
On to `CC[C@H](C)[C@H](NC(=O)[C@H](CO)NC(=O)[C@H](CCCCN)NC(=O)CNC(=O)[C@H](CCCCN)NC(=O)[C@H](CC(=O)O)NC(=O)[C@H](Cc1cnc[nH]1)NC(=O)[C@H](CC(C)C)NC(=O)[C@H](CC(C)C)NC(=O)[C@H](CCC(N)=O)NC(=O)[C@H](Cc1cnc[nH]1)NC(=O)[C@H](CCC(=O)O)NC(=O)[C@H](CO)NC(=O)[C@@H](NC(=O)[C@H](C)N)C(C)C)C(=O)N[C@@H](CCC(N)=O)C(=O)N[C@@H](CC(=O)O)C(=O)N[C@@H](CC(C)C)C(=O)N[C@@H](CCCNC(=N)N)C(=O)N[C@@H](CCCNC(=N)N)C(=O)N[C@@H](CCCNC(=N)N)C(=O)N[C@@H](CCC(=O)O)C(=O)N[C@@H](CC(C)C)C(=O)N[C@@H](CC(C)C)C(=O)N[C@@H](CCC(=O)O)C(=O)N[C@@H](CCCCN)C(=O)N[C@@H](CC(C)C)C(=O)N[C@@H](CC(C)C)C(=O)NC(C)(C)C(=O)N[C@@H](CCCCN)C(=O)N[C@@H](CC(C)C)C(=O)N[C@@H](Cc1cnc[nH]1)C(=O)N[C@H](C(=O)N[C@@H](C)C(N)=O)[C@@H](C)O` [abaloparatide, [Glu^22,25, Leu^23,28,31, Aib^29, Lys^26,30]hPTHrP(1-34)NH2], for which, in data set [3], the “Anti-abaloparatide antibody titer in positive patients” value is ≤ 1:20 and the “Patients with positive anti-abaloparatide antibody titer” value is listed as 12%. For the same compound, the “AE: Hypercalcemia (serum albumin-corrected calcium value ≧10.7 mg/dL)” value in data set [4] was 3.41%^†. Further, in data set [5], the “AE: Influenza” value was determined as 6.3%.
